These results are taken from Sander's compilation of Henry's law constants.

The data set can be described thus: Henry solubility constant Hcp at 298.15 K (mol/(m3 Pa)).
The mark [1] stands for this setting: reference: Christie and Crisp (1967).
Where [2] appears, read: reference: Ashton et al. (1968).
Setting [3] is: reference: Wen and Muccitelli (1979).
[4] abbreviates: reference: Butler et al. (1935).
The mark [5] stands for this setting: reference: Fenclová et al. (2010).
The mark [6] stands for this setting: reference: Butler and Ramchandani (1935).
The mark [7] stands for this setting: reference: Schuhfried et al. (2015).
The mark [8] stands for this setting: reference: Hovorka et al. (2019).
Where [9] appears, read: reference: Shunthirasingham et al. (2013).
Where [10] appears, read: reference: Warner et al. (1980).
[11] abbreviates: reference: Souchon et al. (2004).
Setting [12] is: reference: Dohányosová et al. (2004).
[13] abbreviates: reference: Harrison et al. (2002).

As to `CCC(C)C=O` (centres undefined) [2-methylbutanal], the “Henry solubility constant Hcp” value (reference: Pollien et al. (2003)) was found to be 0.023. For `BrC(Br)C(Br)Br` [1,1,2,2-tetrabromoethane], where the note is “reference: Khalfaoui and Newsham (1994a)”, the “Henry solubility constant Hcp” value came to 0.01. Consider `N=C=O` [isocyanic acid], for which, under “reference: Roberts et al. (2011)”, the “Henry solubility constant Hcp” value amounted to 0.21. Take `O=C(O)C(F)(F)C(F)(F)C(F)(F)C(F)(F)C(F)(F)C(F)(F)F` [perfluoroheptanoic acid]: under “reference: Kwan (2001)”, the “Henry solubility constant Hcp” value was 1.7. On to `C1CCOCC1` [tetrahydropyran], for which the “Henry solubility constant Hcp” value (reference: Ondo and Dohnal (2007)) stood at 0.083. As to `CCCNCCC` [dipropylamine], the “Henry solubility constant Hcp” value under setting [1] was found to be 0.19 and the “Henry solubility constant Hcp” value (reference: Leng et al. (2015a)) stood at 0.12.

For `CCc1ncc(C)nc1CC` [2,3-diethyl-5-methylpyrazine], the “Henry solubility constant Hcp” value (reference: Roberts and Pollien (1997)) came out at 0.81. `FC(F)(F)F` [tetrafluoromethane]: the “Henry solubility constant Hcp” value under setting [2] stood at 2.1e-06; the “Henry solubility constant Hcp” value (reference: Cosgrove and Walkley (1981)) was 2.1e-06; the “Henry solubility constant Hcp” value (reference: Morrison and Johnstone (1954)) turned out to be 2e-06; the “Henry solubility constant Hcp” value (reference: Park et al. (1982)) was found to be 2.1e-06; the “Henry solubility constant Hcp” value (reference: Reichl (1995)) is 2e-06; the “Henry solubility constant Hcp” value (reference: Scharlin and Battino (1994)) stood at 2.1e-06. For the same molecule, the “Henry solubility constant Hcp” value (reference: Scharlin and Battino (1995)) was 2.1e-06; the “Henry solubility constant Hcp” value under setting [3] was 2e-06. As for `CCCC(C)O` (centres undefined) [2-pentanol], the “Henry solubility constant Hcp” value is 0.67 under setting [4] and 0.71 under setting [5]. With `CCSC` [ethyl methyl sulfide], the “Henry solubility constant Hcp” value (reference: Schuhfried et al. (2011)) turned out to be 0.0042. Turning to `CCC(O)CC` [3-pentanol], the “Henry solubility constant Hcp” value under setting [5] is 0.64.

On to `C=CCC` [1-butene], for which the “Henry solubility constant Hcp” value (reference: Serra and Palavra (2003)) turned out to be 4.5e-05.

Take `C/C=C/C(=O)C1=C(C)C=CCC1(C)C` [(E)-β-damascenone]: the “Henry solubility constant Hcp” value (reference: Wieland et al. (2015)) turned out to be 0.32.

`C=CC` [propene]: the “Henry solubility constant Hcp” value was 5.4e-05 (reference: Maaßen (1995)) and 5.4e-05 (reference: Reichl (1995)). In the case of `CN(CCO)CCO` [N-methyldiethanolamine], the “Henry solubility constant Hcp” value is, setting by setting: (reference: Kim et al. (2008)) 400000; (reference: Nguyen (2013)) 3900. On to `OCC(O)CO` [1,2,3-propanetriol], for which the “Henry solubility constant Hcp” value under setting [6] is 580. On to `FN(F)F` [nitrogen trifluoride], for which the “Henry solubility constant Hcp” value by setting is: under setting [2], 7.8e-06; (reference: Dean et al. (1973)) 7.7e-06. `C=C/C(C)=C/C/C=C(\C)CCC=C(C)C` [α-farnesene]: under setting [7], the “Henry solubility constant Hcp” value is 8.1e-06. Take `C1CO1` [oxirane]: under “reference: Conway et al. (1983)”, the “Henry solubility constant Hcp” value was 0.058. Take `C=CC(=C)CCC=C(C)C` [7-methyl-3-methylene-1,6-octadiene]: the “Henry solubility constant Hcp” value came out at 0.00087 (reference: Fichan et al. (1999)) and 0.00036 under setting [7].

Regarding `CCN` [ethanamine], the “Henry solubility constant Hcp” value is, setting by setting: under setting [6], 0.99; under setting [1], 0.8. `Cc1cccc2ccccc12` [1-methylnaphthalene]: the “Henry solubility constant Hcp” value (reference: Schwarz and Wasik (1977)) was 0.028. For `Clc1ccc(-c2c(Cl)c(Cl)cc(Cl)c2Cl)c(Cl)c1Cl` [2,2',3,3',4,5',6'-heptachlorobiphenyl], the “Henry solubility constant Hcp” value (reference: Murphy et al. (1983a)) came out at 0.0045.

For the molecule `[CH3][Hg][CH3]` [dimethylmercury], the “Henry solubility constant Hcp” value (reference: Talmi and Mesmer (1975)) came out at 0.0013. For the molecule `CCC=CCCC=CC=O` [trans-2,cis-6-nonadienal], the “Henry solubility constant Hcp” value (reference: Ömür-Özbek and Dietrich (2005)) was 0.082. With `CC(=O)C(C)C` [3-methyl-2-butanone], under setting [8], the “Henry solubility constant Hcp” value was found to be 0.093. Turning to `CCCCC(C)=O` [2-hexanone], the “Henry solubility constant Hcp” value (reference: Chai et al. (2005)) was 0.086; the “Henry solubility constant Hcp” value under setting [8] was found to be 0.099; the “Henry solubility constant Hcp” value (reference: Straver and de Loos (2005)) turned out to be 0.11. As to `CCCCC(=O)O` [pentanoic acid], the “Henry solubility constant Hcp” value was 21 (reference: Khan and Brimblecombe (1992)); 23 (reference: Khan et al. (1995)); 24 (reference: Kim and Kim (2016)); 12 (reference: von Hartungen et al. (2004)). Turning to `COC(=O)C(C)O` (centres undefined) [methyl 2-hydroxypropanoate], for the setting “reference: Sanz and Gmehling (2005)”, the “Henry solubility constant Hcp” value was determined as 9.1. Turning to `C/C=C/C=C/C=O` [(E,E)-2,4-hexadienal], where the note is “reference: Buttery et al. (1971)”, the “Henry solubility constant Hcp” value amounted to 1.

As to `FC(F)(F)C(F)(F)C(F)(F)F` [octafluoropropane], under setting [3], the “Henry solubility constant Hcp” value stood at 1.2e-07. On to `COc1cc(CO)ccc1O` [vanillyl alcohol], for which the “Henry solubility constant Hcp” value (reference: McFall et al. (2020)) worked out at 96000. Regarding `CCCCCCCCCCO` [1-decanol], the “Henry solubility constant Hcp” value turned out to be 0.065 (reference: Lei et al. (2007)) and 0.076 under setting [9]. As to `FN(F)N(F)F` [dinitrogen tetrafluoride], the “Henry solubility constant Hcp” value (reference: Dean et al. (1973)) worked out at 8.4e-06. Consider `ClC=CCCl` [1,3-dichloropropene], for which, under setting [10], the “Henry solubility constant Hcp” value is 0.0028.

As for `Cc1cncc(C)n1` [2,6-dimethylpyrazine], the “Henry solubility constant Hcp” value (reference: Chaintreau et al. (1995)) worked out at 0.98. With `O=C(O)CF` [fluoroethanoic acid], the “Henry solubility constant Hcp” value (reference: Bowden et al. (1998a)) was 800.

Regarding `CC(N)CN` (centres undefined) [1,2-diaminopropane], the “Henry solubility constant Hcp” value (reference: Nguyen (2013)) stood at 1400. Consider `C=CCN=C=S` [allyl isothiocyanate], for which, under setting [11], the “Henry solubility constant Hcp” value turned out to be 0.021. On to `C[C@@H]1CCCC[C@@H]1C` [cis-1,2-dimethylcyclohexane], for which the “Henry solubility constant Hcp” value under setting [12] was 2.7e-05. As to `[2H]c1c([2H])c([2H])c([2H])c([2H])c1[2H]` [benzene-d6], the “Henry solubility constant Hcp” value (reference: Wasik and Tsang (1970)) worked out at 0.0016.

With `OCCN1CCNCC1` [N-(2-hydroxyethyl)piperazine], the “Henry solubility constant Hcp” value (reference: Nguyen (2013)) stood at 2900.

On to `O=S(=O)(F)F` [sulfuryl fluoride], for which the “Henry solubility constant Hcp” value (reference: Cady and Misra (1974)) was determined as 8.9e-05. On to `C#CCBr` [3-bromo-1-propyne], for which, where the note is “reference: Yates and Gan (1998)”, the “Henry solubility constant Hcp” value amounted to 0.0088. Take `FC(F)(Cl)C(F)(F)Cl` [1,2-dichlorotetrafluoroethane]: the “Henry solubility constant Hcp” value (reference: Reichl (1995)) is 9e-06. In the case of `CCCCCCC=O` [heptanal], the “Henry solubility constant Hcp” value by setting is: (reference: Buttery et al. (1965)) 0.06; under setting [11], 0.035. Take `CCCCCC(C)(C)OC` [2-methoxy-2-methylheptane]: the “Henry solubility constant Hcp” value (reference: Haimi et al. (2006)) is 0.0019. As to `CC(C)(C)C` [dimethylpropane], the “Henry solubility constant Hcp” value was determined as 5.5e-06 (reference: Shoor et al. (1969)) and 6.3e-06 (reference: Wetlaufer et al. (1964)).

Consider `CCCCCO` [1-pentanol], for which the “Henry solubility constant Hcp” value reads like this: under setting [4], 0.78; (reference: Gupta et al. (2000)) 0.95; (reference: Lei et al. (2007)) 0.75; under setting [9], 0.81. In the case of `O=C(O)CCCC(=O)O` [pentanedioic acid], the “Henry solubility constant Hcp” value (reference: Mentel et al. (2004)) amounted to 1.9e+07. Regarding `Cc1ccccc1O` [1-hydroxy-2-methylbenzene], the “Henry solubility constant Hcp” value (reference: Dohnal and Fenclová (1995)) was determined as 5.6; the “Henry solubility constant Hcp” value (reference: Feigenbrugel et al. (2004b)) stood at 4.2; the “Henry solubility constant Hcp” value under setting [13] came out at 11; the “Henry solubility constant Hcp” value (reference: Parsons et al. (1972)) was determined as 8.2. Turning to `CCOC(C)(C)CC(C)(C)C` [2-ethoxy-2,4,4-trimethylpentane], under “reference: Haimi et al. (2006)”, the “Henry solubility constant Hcp” value is 0.00077.

With `CCCCN` [1-butanamine], the “Henry solubility constant Hcp” value is, setting by setting: under setting [6], 0.65; under setting [1], 0.56. Turning to `CC(C)(C)Cl` [2-chloro-2-methylpropane], the “Henry solubility constant Hcp” value (reference: Clarke et al. (1962)) stood at 0.00016. Take `CNCCCN` [N-methyl-1,3-propanediamine]: the “Henry solubility constant Hcp” value by setting is: (reference: Kim et al. (2008)) 2100; (reference: Nguyen (2013)) 1400.

Take `OCC(F)(F)C(F)F` [2,2,3,3-tetrafluoro-1-propanol]: the “Henry solubility constant Hcp” value was 1.4 (reference: Chen et al. (2003)); 1.6 (reference: Rochester and Symonds (1973)). On to `O=C(O)c1ccccc1` [benzenecarboxylic acid], for which the “Henry solubility constant Hcp” value (reference: Li et al. (2007)) was 290. With `O=[N+]([O-])c1ccccc1O` [2-nitrophenol], the “Henry solubility constant Hcp” value is 1.4 (reference: Guo and Brimblecombe (2007)); 0.83 under setting [13]; 0.89 (reference: Müller and Heal (2001)). Take `CCC1CCCCC1` [ethylcyclohexane]: the “Henry solubility constant Hcp” value turned out to be 2e-05 under setting [12] and 3.1e-05 (reference: Heidman et al. (1985)). For `C1=Cc2cccc3cccc1c23` [acenaphthylene], the “Henry solubility constant Hcp” value under setting [10] was found to be 0.087. With `CCC(C)N` (centres undefined) [2-butanamine], for the setting “reference: Kish et al. (2013)”, the “Henry solubility constant Hcp” value turned out to be 0.4.

As to `ClCC(Cl)CCCCCCC(Cl)CCl` (centres undefined) [1,2,9,10-tetrachlorodecane], the “Henry solubility constant Hcp” value (reference: Drouillard et al. (1998)) is 0.056.

Regarding `CS(C)=O` [dimethylsulfoxide], the “Henry solubility constant Hcp” value (reference: Lee and Zhou (1994)) was over 9900; the “Henry solubility constant Hcp” value (reference: Watts and Brimblecombe (1987)) worked out at 940. `CNC=O` [N-methylmethanamide]: the “Henry solubility constant Hcp” value (reference: Bernauer and Dohnal (2008)) is 1500.
